Reference: patent US20250262167A1, “COMPOUNDS, TARGETS AND PATHWAYS FOR MACROPHAGE MODULATION” (Massachusetts Institute of Technology, priority 2020, published 2025)

Key:
[1] = test system: BMDMs (wild-type and Pkm−/−); conditions: dose-dependent
Description: WT and Pkm^−/− BMDMs were not treated or treated with DPI (50 and 500 nM) for 24 hrs. The transcript levels of Pkm, Ldha, Hk2 and c-Myc were measured by real-time qPCR. Data were collected from two independent experiments with 3 biological replicates per group. Transcriptional level was normalized to β-actin first and then to DMSO control. Data are presented as the mean±sd. […] Transfected cells were not treated or treated with DPI (50 and 500 nM) for 6 hrs and luciferase activities were measured. Data are presented as the mean±sd (n=5). P values were calculated by student t-test. * P<0.05, ** P<0.01, *** P<0.001, **** P<0.0001.
To test this mechanism, we first determined if PKM2 is required for DPI-induced transcription of glycolytic genes. BMDMs were prepared from wild-type and Pkm^−/− mice, incubated with or without 50 and 500 nM DPI for 24 hours, and the transcript levels of key glycolytic genes were quantified by RT-PCR.
We also determined if c-Myc is induced by DPI in a PKM2-dependent manner. […] To determine whether DPI activates c-Myc transcriptional activity, we performed c-Myc luciferase reporter assays in the parental ImKCs and Pkm^−/− ImKCs.

B16F10 melanoma cells = test: Tumor growth inhibition by treated macrophages or their conditioned medium; type: cell-based, mouse
Description: DEGs were identified by edgeR at P<0.05 with at least 2 fold-change. Data for genes that were not classified as differentially expressed are plotted in black. […] Mouse BMMs were cultured in normal medium with or without 2.5 μM thiostrepton for 24 hrs (group 1), or cultured in B16F10 tumor cell conditioned medium (CM) with or without 2.5 μM thiostrepton for 24 hrs (group 2), or cultured with B16F10 tumor cell CM for 24 hrs first and then treated with 2.5 μM thiostrepton for another 24 hrs (group 3). The transcript levels of the indicated genes were quantified by qPCR. Data were summarized from two independent experiments. […] Mouse BMMs were treated with thiostrepton for 24 hrs. […] The number of tumor cells were quantified by flow cytometry after subtracting macrophages from total number of cells. […]
Conditioned medium (CM) was collected and filtered. […] The number of tumor cells were quantified by flow cytometry. […] Mouse BMMs (FIG. 14B) or hMDM (FIG. 14C) were treated with […] thiostrepton for 24 hrs, then co-cultured with equal number of eFluro670 and anti-CD20 labelled human B-cell lymphoma cells for 2 hrs, and analyzed by flow cytometry. […]
Mouse bone marrow-derived macrophages (mBMM) were prepared as described previously^54. […] Expression of Arg, Fizz1 and Vegfa were quantified by qPCR to assess the development of TAMs. […]

[2] = test system: luciferase-expressing human B lymphoma cells (GMB); test: Human B lymphoma (GMB-luc) model in NSG mice; type: in vivo, mouse
Description: NSG mice were grafted with 1×10^7 GMB-luc cells and dosed twice at 14 and 21 days later with 0.5 mg/kg Rituximab (Ritu) and/or 300 mg/kg thiostrepton (Thio). Tumor burden was monitored (FIG. 18A) and quantified (FIG. 18B) by imaging the luciferase activity in vivo (n=5˜6 mice per group). Data are shown as mean±s.e.m. At day 28 post tumor engraftment, bone marrow cells were analyzed by flow cytometry (FIG. 18C). Shown are representative F4/80 versus CD11b staining profiles gating on CD45^+ cells (top panel), Ly6C versus Ly6G staining profiles gating on F4/80^+CD11b^+ cells (bottom panel). MHCII histograms gating on macrophages from FIG. 18C. […] Data shown are mean±s.d. * P<0.05, ** P<0.01 and *** P<0.001, by T-test.
For the melanoma model, an inoculum of 1×10^6 B16F10 tumor cells was injected subcutaneously on the flank of 8- to 10-week-old male B6 mice in […] sterile PBS. Six days following tumor inoculation, mice were randomized into 4 treatment groups including control (PBS or DMSO), tumor-targeting antibody TA99, compound, compound plus TA99. TA99 was administered at […] per dose intraperitoneally (I.P.). The compound was administrated at the indicated dosage by either I.P. or paratumor injection subcutaneously (S.C.). All mice were dosed at day 6 and day 12 post tumor inoculation for a total of 2 treatments. Tumor size was measured as an area (longest dimension×perpendicular dimension) at day 6, day 12 and day 18 post tumor inoculation. Mice were euthanized for analysis at day 18 post tumor inoculation. For the lymphoma model, 1×10^7 GMB cells were injected through tail intravenously in 100 μL sterile PBS into 10- to 12-week-old male NSG mice. Mice were treated two weeks post tumor cell engraftment. Tumor-targeting antibody Rituxumab (InvivoGen) was administered at 10 mg/kg intraperitoneally. The compound was administrated I.P. at the indicated dosage. All mice were dosed at week 2 and week 3 post tumor injection for a total of 2 treatments. […]

Row | Compound | transcription of c-Myc [1] | HFD-induced elevation of serum AST and ALT (HFD 8 weeks) | weight gain (HFD 8 weeks, 2 mg/kg i.p. every five days, vs vehicle) | glucose tolerance (HFD 8 weeks, vs vehicle) | lipid deposition in the liver (HFD 8 weeks, vs vehicle) | iWAT (after 8 weeks on HFD) | melanoma cells in conditioned medium from treated macrophages (B16F10 melanoma cells; 12 hrs, vs untreated or heat-inactivated conditioned medium) | melanoma cells after co-culture with treated macrophages (B16F10 melanoma cells; BMMs treated 24 hrs, co-culture 12 hrs, vs untreated macrophages, dose-dependent) | tumor burden in the bone marrow ([2]; alone, 300 mg/kg, luciferase imaging) | tumor burden in the bone marrow, with rituximab ([2]; together with rituximab, luciferase imaging) | F4/80+CD11b+ macrophages with higher MHCII in bone marrow ([2]; vs vehicle or rituximab)
1 | c1ccc2c(c1)[I+]c1ccccc1-2 [Diphenyleneiodonium chloride] | stimulated the transcription | significantly reduced | significantly reduced | significant increase | significantly reduced | significantly lower levels |  |  |  |  | 
2 | C=C(NC(=O)C(=C)NC(=O)c1csc(C2=N[C@@H]3c4csc(n4)[C@H]4NC(=O)c5csc(n5)[C@H]([C@](C)(O)[C@@H](C)O)NC(=O)[C@H]5CSC(=N5)/C(=C/C)NC(=O)[C@H]([C@@H](C)O)NC(=O)c5csc(n5)[C@]3(CC2)NC(=O)[C@H](C)NC(=O)C(=C)NC(=O)[C@H](C)NC(=O)[C@H]([C@@H](C)CC)N[C@@H]2C=Cc3c([C@H](C)O)cc(nc3[C@H]2O)C(=O)O[C@@H]4C)n1)C(N)=O [Thiostrepton] |  |  |  |  |  |  | more melanoma cells were lost | Significantly more melanoma cells were lost | significantly reduced | significantly reduced | higher percentages
